Measured values: US20260085062A1, “NOVEL COMPOUNDS AS CK2 INHIBITORS” (Cambridge Enterprise Limited, priority 2022, published 2026)

Key:
CK2α = molecular target: T1, CK2α (Homo sapiens, UniProt P68400); assay: Biochemical assay for inhibitors of CK2α kinase activity (ADP-Glo); details: 0.2 nM CK2α, 50 μM peptide substrate, 15 μM ATP, read-out: Assay 1: CK2α Enzyme IC50
T1 construct: CK2α (residues 2-329) was produced in Escherichia coli BL21 (DE3) for kinase activity screening; His6 (N, cleaved yes); made in house; host or cells: Escherichia coli BL21 (DE3)
T1 sequence (P68400 2-329): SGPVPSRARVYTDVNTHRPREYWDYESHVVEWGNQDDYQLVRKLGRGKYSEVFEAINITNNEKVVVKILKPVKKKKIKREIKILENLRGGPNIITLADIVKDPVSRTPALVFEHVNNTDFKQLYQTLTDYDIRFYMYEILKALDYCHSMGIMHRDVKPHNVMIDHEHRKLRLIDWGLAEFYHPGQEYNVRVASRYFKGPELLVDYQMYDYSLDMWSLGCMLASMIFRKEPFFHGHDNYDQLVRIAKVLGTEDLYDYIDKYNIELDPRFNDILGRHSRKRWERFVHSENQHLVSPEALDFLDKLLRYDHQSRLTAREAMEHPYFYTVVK

CLK2 = molecular target: T2, CLK2 (Homo sapiens, UniProt P49760); assay: Biochemical assay for inhibitors of CLK2 kinase activity (ADP-Glo); details: 20 nM CLK2, 50 μM peptide substrate, 100 μM ATP, read-out: Assay 2: CLK2 Enzyme IC50
T2 construct: purchased Carna Biosciences 04-127

intracellular CK2α = molecular target: T3, intracellular CK2α (Homo sapiens, UniProt P19784); assay: Cell-based NanoBRET assay for inhibitor binding to intracellular CK2α; details: HCT116 cells transiently transfected with CSNK2A2-NanoLuc fusion vector; Tracer K-5; 2 h; read-out: Assay 3: NanoBRET ™ assay for binding to intracellular CK2α
T3 construct: host or cells: HCT116 (ATCC CCL-247)
Procedure, shortened: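 Apparent affinity came from BRET ratio (acceptor/donor ×1,000), with donor read at 450 nm and acceptor at 610 or 630 nm. Compounds competed off a tracer added at fixed concentration to cells carrying a NanoLuc-CK2α fusion.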

T3 sequence (P19784 whole entry, the tested form may be a part): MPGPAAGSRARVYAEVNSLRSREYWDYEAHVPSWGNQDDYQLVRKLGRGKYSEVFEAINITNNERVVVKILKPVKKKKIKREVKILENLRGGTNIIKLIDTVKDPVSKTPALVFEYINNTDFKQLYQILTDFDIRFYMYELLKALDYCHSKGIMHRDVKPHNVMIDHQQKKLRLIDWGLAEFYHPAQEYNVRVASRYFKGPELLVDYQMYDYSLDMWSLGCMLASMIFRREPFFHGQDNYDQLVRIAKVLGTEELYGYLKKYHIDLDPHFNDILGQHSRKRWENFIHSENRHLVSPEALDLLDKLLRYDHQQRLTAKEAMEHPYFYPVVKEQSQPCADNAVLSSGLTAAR
T2 sequence (P49760 whole entry): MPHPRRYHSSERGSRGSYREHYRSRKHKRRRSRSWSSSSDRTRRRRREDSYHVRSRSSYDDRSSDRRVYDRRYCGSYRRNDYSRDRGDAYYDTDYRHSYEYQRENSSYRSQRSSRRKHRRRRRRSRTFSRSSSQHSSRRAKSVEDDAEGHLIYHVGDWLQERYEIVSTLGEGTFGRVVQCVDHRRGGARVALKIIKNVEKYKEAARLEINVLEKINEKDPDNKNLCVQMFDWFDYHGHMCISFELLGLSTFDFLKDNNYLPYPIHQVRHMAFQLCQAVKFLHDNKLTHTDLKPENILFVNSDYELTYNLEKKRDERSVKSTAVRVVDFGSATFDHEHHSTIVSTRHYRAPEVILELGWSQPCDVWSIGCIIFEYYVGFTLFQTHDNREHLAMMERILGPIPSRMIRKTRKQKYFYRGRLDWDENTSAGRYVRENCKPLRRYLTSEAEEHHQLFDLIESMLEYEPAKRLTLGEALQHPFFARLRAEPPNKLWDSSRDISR

**Q.** FC(F)(F)c1ccc2[nH]c(CNCCCCOCCOc3cc(-c4cnoc4)cc4[nH]ncc34)cc2c1 [Example 144, 4-(2-((6-(isoxazol-4-yl)-1H-indazol-4-yl)oxy)ethoxy)-N-((5-(trifluoromethyl)-1H-indol-2-yl)methyl)butan-1-amine] was tested. Which IC50 (CK2α) did it give?
**A.** 4.72 nM

**Q.** And the IC50 (CLK2)?
**A.** 271 nM

**Q.** And the IC50 (intracellular CK2α)?
**A.** 347 nM

**Q.** With N#CCc1cc(CNCCCCOC2CN(c3cc(-c4cnoc4)cc4[nH]ncc34)C2)cc(C(F)(F)F)c1 [Example 145, 2-(3-(((4-((1-(6-(isoxazol-4-yl)-1H-indazol-4-yl)azetidin-3-yl)oxy)butyl)amino)methyl)-5-(trifluoromethyl)phenyl)acetonitrile] as the molecule, how does the IC50 (CK2α) read?
**A.** 25.4 nM

**Q.** And the IC50 (CLK2)?
**A.** 186 nM

**Q.** What about the IC50 (intracellular CK2α) of the same molecule?
**A.** 1730 nM

**Q.** N#CCc1cc(CNCCCCOC2CN(c3cc(-c4cnoc4)cc4[nH]ncc34)C2)cc(OC(F)(F)F)c1 [Example 146, 2-(3-(((4-((1-(6-(isoxazol-4-yl)-1H-indazol-4-yl)azetidin-3-yl)oxy)butyl)amino)methyl)-5-(trifluoromethoxy)phenyl)acetonitrile] was tested. Which IC50 (CK2α) did it give?
**A.** 8.18 nM

**Q.** And the IC50 (CLK2)?
**A.** 152 nM

**Q.** What about the IC50 (intracellular CK2α) of the same molecule?
**A.** 299 nM

**Q.** Which IC50 (CK2α) does the source give for N#CCc1cc(CNCCCCOC2CN(c3cc(-n4cnnc4)cc4[nH]ncc34)C2)cc(OC(F)(F)F)c1 [Example 147, 2-(3-(((4-((1-(6-(4H-1,2,4-triazol-4-yl)-1H-indazol-4-yl)azetidin-3-yl)oxy)butyl)amino)methyl)-5-(trifluoromethoxy)phenyl)acetonitrile] here?
**A.** 8.8 nM

**Q.** And the IC50 (CLK2)?
**A.** 300 nM

**Q.** And the IC50 (intracellular CK2α)?
**A.** 528 nM

**Q.** What does the source list for N#CCc1cc(CNCCCCOCCOc2cc(-n3cnnc3)cc3[nH]nnc23)cc(OC(F)(F)F)c1 [Example 148, 2-(3-(((4-(2-((6-(4H-1,2,4-triazol-4-yl)-1H-benzo[d][1,2,3]triazol-4-yl)oxy)ethoxy)butyl)amino)methyl)-5-(trifluoromethoxy)phenyl)acetonitrile]?
**A.** IC50 (CK2α): 138 nM; IC50 (CLK2): > 50000 nM; IC50 (intracellular CK2α): > 50000 nM

**Q.** How did the IC50 (CK2α) turn out when FC(F)(F)c1ccc2[nH]c(CNCCCCOC3CN(c4cc(-c5ccnnc5)cc5[nH]nnc45)C3)cc2c1 [Example 149, 4-((1-(6-(pyridazin-4-yl)-1H-benzo[d][1,2,3]triazol-4-yl)azetidin-3-yl)oxy)-N-((5-(trifluoromethyl)-1H-indol-2-yl)methyl)butan-1-amine] was run?
**A.** 255 nM

**Q.** What about the IC50 (CLK2) of the same molecule?
**A.** 15300 nM

**Q.** What about the IC50 (intracellular CK2α) of the same molecule?
**A.** > 50000 nM

**Q.** FC(F)(F)Oc1ccc(CNCCCCOC2CN(c3cc(-c4ccnnc4)cc4[nH]nnc34)C2)cc1Cl [Example 150, N-(3-chloro-4-(trifluoromethoxy)benzyl)-4-((1-(6-(pyridazin-4-yl)-1H-benzo[d][1,2,3]triazol-4-yl)azetidin-3-yl)oxy)butan-1-amine] was tested. Which IC50 (CK2α) did it give?
**A.** 338 nM

**Q.** And the IC50 (CLK2)?
**A.** 17700 nM

**Q.** And the IC50 (intracellular CK2α)?
**A.** 39300 nM

**Q.** N#CCc1cc(CNCCCCOC2CN(c3cc(-c4ccnnc4)cc4[nH]nnc34)C2)cc(OC(F)(F)F)c1 [Example 151, 2-(3-(((4-((1-(6-(pyridazin-4-yl)-1H-benzo[d][1,2,3]triazol-4-yl)azetidin-3-yl)oxy)butyl)amino)methyl)-5-(trifluoromethoxy)phenyl)acetonitrile] was tested. Which IC50 (CK2α) did it give?
**A.** 187 nM

**Q.** What about the IC50 (CLK2) of the same molecule?
**A.** 39800 nM

**Q.** And the IC50 (intracellular CK2α)?
**A.** 19300 nM

**Q.** Which IC50 (CK2α) does the source give for FC(F)(F)c1ccc2[nH]c(CNCCCCOC3CN(c4cc(-n5cnnc5)cc5[nH]nnc45)C3)cc2c1 [Example 152, 4-((1-(6-(4H-1,2,4-triazol-4-yl)-1H-benzo[d][1,2,3]triazol-4-yl)azetidin-3-yl)oxy)-N-((5-(trifluoromethyl)-1H-indol-2-yl)methyl)butan-1-amine] here?
**A.** 49.7 nM

**Q.** What about the IC50 (CLK2) of the same molecule?
**A.** 5820 nM

**Q.** And the IC50 (intracellular CK2α)?
**A.** > 50000 nM

**Q.** Which results are given for FC(F)(F)Oc1ccc(CNCCCCOC2CN(c3cc(-n4cnnc4)cc4[nH]nnc34)C2)cc1Cl [Example 153, 4-((1-(6-(4H-1,2,4-triazol-4-yl)-1H-benzo[d][1,2,3]triazol-4-yl)azetidin-3-yl)oxy)-N-(3-chloro-4-(trifluoromethoxy)benzyl)butan-1-amine]?
**A.** IC50 (CK2α): 136 nM; IC50 (CLK2): 11600 nM; IC50 (intracellular CK2α): 34200 nM

**Q.** For N#CCc1cc(CNCCCCOC2CN(c3cc(-n4cnnc4)cc4[nH]nnc34)C2)cc(OC(F)(F)F)c1 [Example 154, 2-(3-(((4-((1-(6-(4H-1,2,4-triazol-4-yl)-1H-benzo[d][1,2,3]triazol-4-yl)azetidin-3-yl)oxy)butyl)amino)methyl)-5-(trifluoromethoxy)phenyl)acetonitrile], which IC50 (CK2α) is on record?
**A.** 170 nM

**Q.** What about the IC50 (CLK2) of the same molecule?
**A.** 24700 nM

**Q.** And the IC50 (intracellular CK2α)?
**A.** > 50000 nM

**Q.** Which IC50 (CK2α) does the source give for N#Cc1[nH]ncc1-c1cc(NCCCNC(=O)CCNCc2ccc(OC(F)(F)F)c(Cl)c2)c2cn[nH]c2c1 [Example 156, 3-((3-chloro-4-(trifluoromethoxy)benzyl)amino)-N-(3-((6-(5-cyano-1H-pyrazol-4-yl)-1H-indazol-4-yl)amino)propyl)propanamide] here?
**A.** 0.64 nM

**Q.** What about the IC50 (CLK2) of the same molecule?
**A.** 71 nM

**Q.** And the IC50 (intracellular CK2α)?
**A.** 108 nM

**Q.** How did the IC50 (CK2α) turn out when O=C(CCNCc1ccc(OC(F)(F)F)c(Cl)c1)NCCCNc1cc(-c2nnco2)cc2[nH]ncc12 [Example 157, N-(3-((6-(1,3,4-oxadiazol-2-yl)-1H-indazol-4-yl)amino)propyl)-3-((3-chloro-4-(trifluoromethoxy)benzyl)amino)propanamide] was run?
**A.** 9.06 nM

**Q.** What about the IC50 (CLK2) of the same molecule?
**A.** 1650 nM

**Q.** What about the IC50 (intracellular CK2α) of the same molecule?
**A.** 828 nM

**Q.** What does the source list for O=C(CCNCc1ccc(OC(F)(F)F)c(Cl)c1)NCCCNc1cc(-c2ccncc2)c(Cl)c2[nH]ncc12 [Example 158, 3-((3-chloro-4-(trifluoromethoxy)benzyl)amino)-N-(3-((7-chloro-6-(pyridin-4-yl)-1H-indazol-4-yl)amino)propyl)propanamide]?
**A.** IC50 (CK2α): 11 nM; IC50 (CLK2): 614 nM; IC50 (intracellular CK2α): 738 nM

**Q.** Cc1[nH]ncc1-c1cc(NCCCNC(=O)CCNCc2ccc(OC(F)(F)F)c(Cl)c2)c2cn[nH]c2c1 [Example 159, 3-((3-chloro-4-(trifluoromethoxy)benzyl)amino)-N-(3-((6-(5-methyl-1H-pyrazol-4-yl)-1H-indazol-4-yl)amino)propyl)propanamide] was tested. Which IC50 (CK2α) did it give?
**A.** 1.93 nM

**Q.** And the IC50 (CLK2)?
**A.** 64.3 nM

**Q.** And the IC50 (intracellular CK2α)?
**A.** 703 nM

**Q.** What does the source list for N#Cc1cc(NCCCNC(=O)CCNCc2ccc(OC(F)(F)F)c(Cl)c2)c2cn[nH]c2c1 [Example 160, 3-((3-chloro-4-(trifluoromethoxy)benzyl)amino)-N-(3-((6-cyano-1H-indazol-4-yl)amino)propyl)propanamide]?
**A.** IC50 (CK2α): 19.1 nM; IC50 (CLK2): 221 nM; IC50 (intracellular CK2α): 1110 nM

**Q.** O=C(CCNCc1ccc(OC(F)(F)F)c(Cl)c1)NCCCNc1cc(-n2ccnn2)cc2[nH]ncc12 [Example 161, N-(3-((6-(1H-1,2,3-triazol-1-yl)-1H-indazol-4-yl)amino)propyl)-3-((3-chloro-4-(trifluoromethoxy)benzyl)amino)propanamide] was tested. Which IC50 (CK2α) did it give?
**A.** 2.02 nM

**Q.** What about the IC50 (CLK2) of the same molecule?
**A.** 667 nM

**Q.** What about the IC50 (intracellular CK2α) of the same molecule?
**A.** 193 nM

**Q.** Which results are given for O=C(CCNCc1ccc(OC(F)(F)F)c(Cl)c1)NCCCNc1cc(-c2ccncc2F)cc2[nH]ncc12 [Example 162, 3-((3-chloro-4-(trifluoromethoxy)benzyl)amino)-N-(3-((6-(3-fluoropyridin-4-yl)-1H-indazol-4-yl)amino)propyl)propanamide]?
**A.** IC50 (CK2α): 6.53 nM; IC50 (CLK2): 807 nM; IC50 (intracellular CK2α): 402 nM

**Q.** Which results are given for O=C(CCNCc1ccc(OC(F)(F)F)c(Cl)c1)NCCCNc1cccc2[nH]ncc12 [Example 163, N-(3-((1H-indazol-4-yl)amino)propyl)-3-((3-chloro-4-(trifluoromethoxy)benzyl)amino)propanamide]?
**A.** IC50 (CK2α): 217 nM; IC50 (CLK2): 6570 nM; IC50 (intracellular CK2α): 26800 nM

**Q.** Which results are given for O=C(CCNCc1ccc(OC(F)(F)F)c(Cl)c1)NCCCNc1cc(-c2cnco2)cc2[nH]ncc12 [Example 164, 3-((3-chloro-4-(trifluoromethoxy)benzyl)amino)-N-(3-((6-(oxazol-5-yl)-1H-indazol-4-yl)amino)propyl)propanamide]?
**A.** IC50 (CK2α): 2.98 nM; IC50 (CLK2): 242 nM; IC50 (intracellular CK2α): 134 nM

**Q.** Cc1cnccc1-c1cc(NCCCNC(=O)CCNCc2ccc(OC(F)(F)F)c(Cl)c2)c2cn[nH]c2c1 [Example 165, 3-((3-chloro-4-(trifluoromethoxy)benzyl)amino)-N-(3-((6-(3-methylpyridin-4-yl)-1H-indazol-4-yl)amino)propyl)propanamide] was tested. Which IC50 (CK2α) did it give?
**A.** 72.9 nM

**Q.** And the IC50 (CLK2)?
**A.** 7320 nM

**Q.** And the IC50 (intracellular CK2α)?
**A.** 3740 nM

**Q.** How did the IC50 (CK2α) turn out when Fc1cc(CNCCCCOCCNc2cc(-c3ccncc3)c(Cl)c3[nH]ncc23)cc(F)c1OC(F)(F)F [Example 166, 7-chloro-N-(2-(4-((3,5-difluoro-4-(trifluoromethoxy)benzyl)amino)butoxy)ethyl)-6-(pyridin-4-yl)-1H-indazol-4-amine] was run?
**A.** 21.3 nM

**Q.** What about the IC50 (CLK2) of the same molecule?
**A.** 783 nM

**Q.** What about the IC50 (intracellular CK2α) of the same molecule?
**A.** 2670 nM

**Q.** Which IC50 (CK2α) does the source give for N#Cc1cc(NCCOCCCCNCc2cc(F)c(OC(F)(F)F)c(F)c2)c2cn[nH]c2c1 [Example 167, 4-((2-(4-((3,5-difluoro-4-(trifluoromethoxy)benzyl)amino)butoxy)ethyl)amino)-1H-indazole-6-carbonitrile] here?
**A.** 21 nM

**Q.** What about the IC50 (CLK2) of the same molecule?
**A.** 774 nM

**Q.** And the IC50 (intracellular CK2α)?
**A.** 831 nM
